Like-named read-outs stand apart in the source and are kept apart here.
Tests used:
hypoxic tumor cells = conditions: cited from earlier work
[1] = In vitro cytotoxicity in oxic cells (% survival); type: cell-based, Chinese hamster; conditions: hamster, v-79 cells, oxic; for viability at 2 h, 1000 µM: 1.0 mM; for viability at 2 h, 5000 µM: 5.0 mM
Method: (§1) Asynchronous monolayers of cultures of Chinese hamster cells line V-79 were employed in all experiments. The monolayers were derived from exponentially growing cultures. Methods of culturing and handling have been reported earlier by Cooke et al, Rad. Res. 65, 152 (1976). The plated cultures were rendered hypoxic in sealed dural containers capable of holding seven petri dishes, by purging with nitrogen (oxygen-free grade) for one hour. Irradiation was carried out by using a cobalt-60 source at a dose rate of approximately 240 rad/min according to the procedure described by Agrawal et al Rad. Res. 78:532 (1979). A dose of 1400 rad was given to hypoxic cells in glass petri dishes in the presence of a given drug concentration (2000 cells/dish). Cell survival was estimated from unirradiated toxic hypoxic cells exposed to the same drug concentration. Complete survival curves were obtained for each compound at the radiation doses of 400 to 3000 rad. The Do value was calculated for each compound and the ratio of the Do value for the hypoxic control cells to the Do value of the hypoxic drug treated cells provided the sensitized enhancement ratio of the corresponding agent.
(§2) Cultures were incubated for 6 days at 37° C. in an atmosphere of 5% CO2. The resulting colonies were fixed in absolute ethanol and stained with methylene blue and counted.
(§3) To determine toxicity in vitro, glass petri dishes containing approximately 200 Chinese hamster cells/dish were exposed to a range of concentrations of each drug for 2 hours and/or 4 hours at 37° C. Drug concentrations between 10 μM and 0.5 mM were employed initially.

[2] = tested on: Chinese hamster cells line V-79; test: Radiosensitization (enhancement ratio, cobalt-60 irradiation of hypoxic cells); type: cell-based
Method: as §1, §2

[3] = Pharmacokinetics, localization in tissue in mice bearing B16 melanoma; type: in vivo, mouse (C57/BL); conditions: for concentration at 0.5 h / concentration at 1 h / Kp at 0.5 h / Kp at 1 h: mouse, ip, 1000 mg/kg; for concentration at 0.5 h / concentration at 1 h: 1 g/kg intraperitoneal
Method: The drug solution was made in normal saline at a concentration of 50 mg/ml. The drug solution was injected intraperitoneally at a dose level of 1 g/kg to C57/BL mice bearing 15 day old B16 melanoma tumor. At 30 and 60 minute interval after the drug administration, mice were anesthetized, blood sample was taken directly by heart puncture and tumor and brain tissue were removed. Plasma was separated after centrifugation of the whole blood and extracted with methanol. Brain and tumor tissue were homogenized and also extracted with methanol. The methanol extracts were analyzed by reverse phase high-performance liquid chromatography employing 25% methanol as mobile phase. The peak was detected at 320 nm with a retention time of 2.3 min. The flow rate was 2 ml/min.

[4] = tested on: hypoxic cells (Chinese hamster cells line V-79); test: Differential toxicity to hypoxic cells at 4 hours; type: cell-based
Method: as §1, §3

[5] = In vitro cytotoxicity in hypoxic cells (% survival); type: cell-based, Chinese hamster; conditions: hamster, v-79 cells
Method: as §1, §2, §3

[6] = 2 hours, 0.1 mM, read-out: In vitro cytoxicity in oxic cells (% survival at 2 hours)
[7] = 2 hours, 0.5 mM, read-out: In vitro cytoxicity in oxic cells (% survival at 2 hours)
[8] = 2 hours, read-out: In vitro cytoxicity in oxic cells (% survival at 2 hours)

O=c1[nH]c(=O)n([C@H]2C[C@H](O)[C@@H](CO)O2)cc1Br [5-bromodeoxyuridine]
selectivity for tumor cells (hypoxic tumor cells): poor selectivity

O=[N+]([O-])c1nccn1C1CCCCO1 (stereo not drawn) [J, 1-(Tetrahydro-2-pyranyl)-2-nitroimidazole]
viability at 2 h, 100 µM [1, 6]: 106% | viability at 2 h, 500 µM [1, 7]: 101% | viability at 2 h, 1000 µM [1, 8]: 105% | viability at 2 h, 5000 µM [1, 8]: 94.9% | Radiosensitization (enhancement ratio in Chinese hamster cells) ([2]; 1.0 mM): 1.7

O=[N+]([O-])c1nccn1C1CCCO1 (stereo not drawn) [I, 1-(Tetrahydro-2-furanyl)-2-nitroimidazole]
viability at 2 h, 100 µM [1, 6]: 98.8% | viability at 2 h, 500 µM [1, 7]: 101% | viability at 2 h, 1000 µM [1, 8]: 87.1% | viability at 2 h, 5000 µM [1, 8]: 79.5% | Radiosensitization (enhancement ratio in Chinese hamster cells) ([2]; 1.0 mM): 1.6

O=[N+]([O-])c1nccn1[C@@H]1C=C[C@H](O)[C@@H](CO)O1 [1-(2',3'-didehydro-2',3'-dideoxy-α-D-erythro-hexopyranosyl)-2-nitroimidazole]
tumor concentration relative to brain (Tumor/Brain ratio) ([3]; 30 and 60 min): approximately 3 fold | Ratio of Brain/Plasma, change with time ([3]; 30 to 60 min): increased with time | Ratio of Tumor/Plasma, change with time ([3]; 30 to 60 min): increased with time | Ratio of Tumor/Brain ([3]; 30 min): 2.87 | Ratio of Tumor/Brain ([3]; 60 min): 2.88 | concentration at 0.5 h ([3]; b16 melanoma tumor, tumor, 30 min, read-out: (B16 melanoma)): 293000 ng/g | concentration at 1 h ([3]; b16 melanoma tumor, tumor, 60 min, read-out: (B16 melanoma)): 346000 ng/g | concentration at 0.5 h ([3]; brain, 30 min, read-out: Brain): 102000 ng/g | concentration at 1 h ([3]; brain, 60 min, read-out: Brain): 120000 ng/g | Kp at 0.5 h ([3]; brain/plasma, 30 min, read-out: Ratio of Brain/Plasma): 0.097 | Kp at 1 h ([3]; brain/plasma, 60 min, read-out: Ratio of Brain/Plasma): 0.18 | concentration at 0.5 h ([3]; plasma, 30 min, read-out: Plasma): 1050 µg/mL | concentration at 1 h ([3]; plasma, 60 min, read-out: Plasma): 648 µg/mL | Kp at 0.5 h ([3]; tumor/plasma, 30 min, read-out: Ratio of Tumor/plasma): 0.278 | Kp at 1 h ([3]; tumor/plasma, 60 min, read-out: Ratio of Tumor/plasma): 0.534

O=[N+]([O-])c1nccn1COCCO [M, 1-[(2-hydroxyethoxy)methyl]-2-nitroimidazole]
viability at 2 h, 100 µM [1, 6]: 99.5% | viability at 2 h, 500 µM [1, 7]: 106% | viability at 2 h, 1000 µM [1, 8]: 104% | Radiosensitization (enhancement ratio in Chinese hamster cells) ([2]; 1.0 mM): 2.1

O=[N+]([O-])c1nccn1C1CCCCC1O (stereo not drawn) [L, 1-(2-Hydroxycyclohexyl)-2-nitroimidazole]
viability at 2 h, 100 µM [1, 6]: 98.2% | viability at 2 h, 500 µM [1, 7]: 90.3% | viability at 2 h, 1000 µM [1, 8]: 86% | Radiosensitization (enhancement ratio in Chinese hamster cells) ([2]; 1.0 mM): 2.0

CC(=O)OC[C@H]1O[C@H](n2ccnc2[N+](=O)[O-])C=C[C@@H]1OC(C)=O [B, 1(4',6di-O--acetyl2',3didehydro-2',3dideoxy-D-erythro-hexopyranosyl)-2-ni roimidazole]
viability at 2 h, 10 µM ([1]; 2 hours, 0.01 mM, read-out: In vitro cytoxicity in oxic cells (% survival at 2 hours)): 106% | viability at 2 h, 50 µM ([1]; 2 hours, 0.05 mM, read-out: In vitro cytoxicity in oxic cells (% survival at 2 hours)): 100% | viability at 2 h, 100 µM [1, 6]: 103% | viability at 2 h, 500 µM [1, 7]: 100% | viability at 4 h, 10 µM ([1]; 4 hours, 0.01 mM, read-out: In vitro cytoxicity in oxic cells (% survival at 4 hours)): 100% | viability at 4 h, 50 µM ([1]; 4 hours, 0.05 mM, read-out: In vitro cytoxicity in oxic cells (% survival at 4 hours)): 100% | viability at 4 h, 100 µM ([1]; 4 hours, 0.1 mM, read-out: In vitro cytoxicity in oxic cells (% survival at 4 hours)): 101% | viability at 4 h, 500 µM ([1]; 4 hours, 0.5 mM, read-out: In vitro cytoxicity in oxic cells (% survival at 4 hours)): 102% | Differential toxicity to hypoxic cells at 4 hours [4]: Yes | viability at 2 h, 100 µM ([5]; 2 hours, 0.1 mM, read-out: In vitro cytoxicity in hypoxic cells (% survival at 2 hours)): 90.9% | viability at 2 h, 500 µM ([5]; 2 hours, 0.5 mM, read-out: In vitro cytoxicity in hypoxic cells (% survival at 2 hours)): 100% | viability at 4 h, 100 µM ([5]; 4 hours, 0.1 mM, read-out: In vitro cytoxicity in hypoxic cells (% survival at 4 hours)): 96% | viability at 4 h, 500 µM ([5]; 4 hours, 0.5 mM, read-out: In vitro cytoxicity in hypoxic cells (% survival at 4 hours)): 60.3% | Radiosensitization (enhancement ratio in Chinese hamster cells) ([2]; 0.5 mM): 2.0
